Patent US20140194531A1, “HYDROXYTYROSOL BENEFITS MITOCHONDRIA” (DSM IP Assets B.V., priority 2008, published 2014)

Tests used:
[1] = system: mitochondrial electron transport complex I; assay: Mitochondrial complex I protein expression in adipocytes (Western blot); type: cell-based, murine; conditions: 3T3-L1 adipocytes, 48 hrs
Protocol: (§1) Murine 3T3-L1 pre-adipocytes (American Type Culture Collection) were cultured in Dulbecco's Modified Eagle's Medium (DMEM) supplemented with 10% fetal bovine serum and allowed to reach confluence. Differentiation of pre-adipocytes was initiated with 1 μM insulin, 0.25 μM dexamethasone and 0.5 mM 3-isobutyl-1-methylxanthine in DMEM, supplemented with 10% fetal bovine serum. After 48 h, the culture medium was replaced with DMEM supplemented with 10% fetal bovine serum and 1 μM insulin. The culture medium was changed every other day with DMEM containing 10% fetal bovine serum. […] After treatment, cells were washed twice with ice-cold PBS, lysed in sample buffer (62.5 mM Tris-Cl pH 6.8, 2% SDS, 5 mM DTT) at room temperature and vortexed. Cell lysates were then boiled for 5 minutes and cleared by centrifugation (13,000 rpm, 10 minutes at 4° C.). Protein concentration was determined using the Bio-Rad DC protein assay. The soluble lysates (10 μg per lane) were subjected to 10% SDS-PAGE, proteins were then transferred to nitrocellulose membranes and blocked with 5% non-fat milk/TBST for 1 h at room temperature. Membranes were incubated with primary antibodies directed against PPAR-y (1:1000), PGC-1α (1:1000), α-tubulin (1:10 000), Complex I (1:2000), Complex II (1:2000), Complex III (1:2000) and Complex V (1:2000) in 5% milk/TBST at 4° C. overnight. After washing membranes with TBST three times, membranes were incubated with horseradish peroxidase-conjugated secondary antibody for 1 h at room temperature. Western blots were developed using ECL (Roche Manheim, Germany) and quantified by scanning densitometry.

mice (C57BL/6NCrl) = assay: Maximal running performance on a treadmill (endurance); type: in vivo; conditions: olive extract containing 50% hydroxytyrosol, 50, 150 or 300 mg/kg body weight per day by gavage, 3 weeks
Source text: The purpose of the study was to determine the effect of hydroxytyrosol on maximal running performance on a treadmill.
In short, forty mice (C57BL/6NCrl; 8 wks old) were purchased from Charles River (Sulzfeld, Germany) and housed individually with free access to water and feed, with an alternating 12-hour light-dark cycle. The animals were fed a standard rodent diet (Ssniff R/M-H, Ext. n° V1536, Ssniff Ltd., Soest, Germany). After 2 weeks of adaptation to the diet the mice were randomized according to body weight into four experimental groups of 10 animals. The four groups were treated orally every morning for 3 weeks with either water (control group) or with an olive extract diluted to 0.2 ml with water and containing 50% hydroxytyrosol at doses of 50, 150, or 300 mg/kg body weight per day. There was no difference in feed consumption over the whole experiment. After 3 weeks of treatment the maximal running distance on a treadmill was measured. Statistical significance of the mean differences between dietary groups was tested by one-way analysis of variance (ANOVA). If significant differences were found, the Dunnett's test for multiple comparison was used to compare each group to the control group. P values less than 0.05 were considered significant.

PGC-1α = PGC-1α protein level in adipocytes (Western blot); type: cell-based, murine; conditions: 3T3-L1 adipocytes, 1.0 μM, maximum, p<0.05 vs. control
Protocol: as §1, with “Membranes were incubated with primary antibodies directed against PPAR-y (1:1000), PGC-1α (1:1000), α-tubulin (1:10 000), Complex I (1:2000), Complex II (1:2000), Complex III (1:2000) and Complex V (1:2000) in 5% milk/TBST at 4° C. overnight. After washing membranes with TBST three times, membranes were incubated with horseradish peroxidase-conjugated secondary antibody for 1 h at room temperature.” left out

Which results are given for `OCCc1ccc(O)c(O)c1` [hydroxytyrosol, 3,4-dihydroxyphenylethanol]?
mitochondrial electron transport complex I protein (vs. control) ([1]; 0.1 μM, p<0.05): 131±16%; mitochondrial electron transport complex I protein (vs. control) ([1]; 1.0 μM, p<0.01): 163±31%; mitochondrial electron transport complex I protein (vs. control) ([1]; 10.0 μM, p<0.05): 138±21%; increase of endurance (mice (C57BL/6NCrl)): up to 50%; PGC-1α protein expression (PGC-1α:α-tubulin ratio, vs. control) (PGC-1α): 205±52%
